Experimental data: ChEMBL document CHEMBL4507318, “Data for DCP probe BAY-985” (2021)

What was measured:
[1] = molecular target: Calcium/calmodulin-dependent protein kinase type II subunit gamma (Homo sapiens) (UniProt Q13555)
[2] = system: Phosphatidylinositol 4,5-bisphosphate 3-kinase catalytic subunit alpha isoform (Homo sapiens), P42336 [E545A]
[3] = molecular target: Receptor-type tyrosine-protein kinase FLT3 (Homo sapiens) (UniProt P36888)
[4] = molecular target: Serine/threonine-protein kinase 4 (Homo sapiens) (UniProt Q13043)
[5] = system: Serine/threonine-protein kinase B-raf (Homo sapiens), P15056 [V600E]
[6] = molecular target: Cyclin-dependent kinase 2 (Homo sapiens) (UniProt P24941)
[7] = molecular target: Misshapen-like kinase 1 (Homo sapiens) (UniProt Q8N4C8)
[8] = molecular target: Phosphatidylinositol 4-kinase beta (Homo sapiens) (UniProt Q9UBF8)
[9] = system: Receptor-type tyrosine-protein kinase FLT3 (Homo sapiens), P36888 [K663Q]
[10] = molecular target: Tyrosine-protein kinase JAK2 (Homo sapiens) (UniProt O60674)
[11] = system: Leucine-rich repeat serine/threonine-protein kinase 2 (Homo sapiens), Q5S007 [G2019S]
[12] = molecular target: Serine/threonine-protein kinase D3 (Homo sapiens) (UniProt O94806)
[13] = molecular target: Muscarinic acetylcholine receptor M4 (Homo sapiens) (UniProt P08173); conditions: Compound concentration 10.0 uM
[14] = system: Epidermal growth factor receptor (Homo sapiens), P00533 [L861Q]
[15] = molecular target: Phosphatidylinositol 4-phosphate 5-kinase type-1 alpha (Homo sapiens) (UniProt Q99755)
[16] = molecular target: Beta-adrenergic receptor kinase 1 (Homo sapiens) (UniProt P25098)
[17] = molecular target: Serine/threonine-protein kinase SIK1 (Homo sapiens) (UniProt P57059)
[18] = molecular target: Tyrosine-protein kinase receptor TYRO3 (Homo sapiens) (UniProt Q06418)
[19] = molecular target: Serine/threonine-protein kinase 32A (Homo sapiens) (UniProt Q8WU08)
[20] = molecular target: MAP/microtubule affinity-regulating kinase 3 (Homo sapiens) (UniProt P27448)
[21] = system: Tyrosine-protein kinase ABL1 (Homo sapiens), P00519 [T315I]
[22] = molecular target: Serine/threonine-protein kinase OSR1 (Homo sapiens) (UniProt O95747)
[23] = molecular target: Tyrosine-protein kinase Srms (Homo sapiens) (UniProt Q9H3Y6)
[24] = molecular target: Dual specificity mitogen-activated protein kinase kinase 6 (Homo sapiens) (UniProt P52564)
[25] = system: Fibroblast growth factor receptor 3 (Homo sapiens), P22607 [G697C]
[26] = molecular target: Mitogen-activated protein kinase 13 (Homo sapiens) (UniProt O15264)
[27] = molecular target: Bone morphogenetic protein receptor type-1A (Homo sapiens) (UniProt P36894)
[28] = molecular target: Death-associated protein kinase 1 (Homo sapiens) (UniProt P53355)
[29] = molecular target: Serine/threonine-protein kinase BRSK1 (Homo sapiens) (UniProt Q8TDC3)
[30] = molecular target: Serine/threonine-protein kinase 35 (Homo sapiens) (UniProt Q8TDR2)
[31] = molecular target: Cyclin-dependent kinase-like 2 (Homo sapiens) (UniProt Q92772)
[32] = molecular target: Serine/threonine-protein kinase ULK1 (Homo sapiens) (UniProt O75385)
[33] = molecular target: Serine/threonine-protein kinase/endoribonuclease IRE1 (Homo sapiens) (UniProt O75460)
[34] = molecular target: Casein kinase II subunit alpha (Homo sapiens) (UniProt P68400)
[35] = molecular target: Mitogen-activated protein kinase 3 (Homo sapiens) (UniProt P27361)
[36] = molecular target: Serine/threonine-protein kinase 25 (Homo sapiens) (UniProt O00506)
[37] = molecular target: Protein kinase C eta type (Homo sapiens) (UniProt P24723)
[38] = molecular target: Aurora kinase A (Homo sapiens) (UniProt O14965)
[39] = system: Receptor-type tyrosine-protein kinase FLT3 (Homo sapiens), P36888 [N841I]
[40] = system: Tyrosine-protein kinase ABL1 (Homo sapiens), P00519 [F317L]
[41] = molecular target: Interleukin-1 receptor-associated kinase 1 (Homo sapiens) (UniProt P51617)
[42] = molecular target: Proto-oncogene tyrosine-protein kinase receptor Ret (Homo sapiens) (UniProt P07949)
[43] = molecular target: Serine/threonine-protein kinase 10 (Homo sapiens) (UniProt O94804)
[44] = molecular target: Delta-type opioid receptor (Homo sapiens) (UniProt P41143); conditions: Compound concentration 10.0 uM
[45] = molecular target: 5-hydroxytryptamine receptor 6 (Homo sapiens) (UniProt P50406); conditions: Compound concentration 10.0 uM
[46] = Compound concentration 1000.0 nM
[47] = Compound concentration 100.0 nM

Sequence of Dual specificity mitogen-activated protein kinase kinase 6 (Homo sapiens) (P52564 whole entry): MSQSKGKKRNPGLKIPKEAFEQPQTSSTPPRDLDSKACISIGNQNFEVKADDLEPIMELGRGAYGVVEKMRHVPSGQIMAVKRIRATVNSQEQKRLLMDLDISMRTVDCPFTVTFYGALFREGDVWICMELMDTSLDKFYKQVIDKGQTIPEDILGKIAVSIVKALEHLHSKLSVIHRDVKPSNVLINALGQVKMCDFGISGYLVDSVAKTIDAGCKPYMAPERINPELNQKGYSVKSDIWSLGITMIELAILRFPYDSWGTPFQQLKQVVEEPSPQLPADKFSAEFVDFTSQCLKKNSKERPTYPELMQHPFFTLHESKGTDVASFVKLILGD
Sequence of Interleukin-1 receptor-associated kinase 1 (Homo sapiens) (P51617 whole entry, looked up): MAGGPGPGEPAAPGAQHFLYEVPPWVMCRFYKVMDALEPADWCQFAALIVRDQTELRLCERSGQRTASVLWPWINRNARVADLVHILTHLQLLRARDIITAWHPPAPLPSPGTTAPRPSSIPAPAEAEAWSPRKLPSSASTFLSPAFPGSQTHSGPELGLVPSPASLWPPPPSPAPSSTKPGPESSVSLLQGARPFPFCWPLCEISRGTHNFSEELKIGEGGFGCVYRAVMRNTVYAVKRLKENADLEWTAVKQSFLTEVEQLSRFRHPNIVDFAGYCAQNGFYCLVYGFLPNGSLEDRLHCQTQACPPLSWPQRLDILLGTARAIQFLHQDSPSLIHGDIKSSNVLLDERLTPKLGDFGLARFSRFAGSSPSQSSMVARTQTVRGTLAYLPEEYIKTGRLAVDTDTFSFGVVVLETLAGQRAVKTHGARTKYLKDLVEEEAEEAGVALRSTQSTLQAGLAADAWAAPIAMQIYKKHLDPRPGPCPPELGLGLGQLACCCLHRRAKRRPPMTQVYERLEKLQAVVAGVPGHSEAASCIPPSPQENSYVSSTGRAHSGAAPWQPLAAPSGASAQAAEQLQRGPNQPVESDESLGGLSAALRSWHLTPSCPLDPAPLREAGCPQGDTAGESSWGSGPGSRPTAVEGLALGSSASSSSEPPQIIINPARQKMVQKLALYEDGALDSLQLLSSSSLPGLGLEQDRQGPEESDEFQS
Sequence of Tyrosine-protein kinase receptor TYRO3 (Homo sapiens) (Q06418 whole entry): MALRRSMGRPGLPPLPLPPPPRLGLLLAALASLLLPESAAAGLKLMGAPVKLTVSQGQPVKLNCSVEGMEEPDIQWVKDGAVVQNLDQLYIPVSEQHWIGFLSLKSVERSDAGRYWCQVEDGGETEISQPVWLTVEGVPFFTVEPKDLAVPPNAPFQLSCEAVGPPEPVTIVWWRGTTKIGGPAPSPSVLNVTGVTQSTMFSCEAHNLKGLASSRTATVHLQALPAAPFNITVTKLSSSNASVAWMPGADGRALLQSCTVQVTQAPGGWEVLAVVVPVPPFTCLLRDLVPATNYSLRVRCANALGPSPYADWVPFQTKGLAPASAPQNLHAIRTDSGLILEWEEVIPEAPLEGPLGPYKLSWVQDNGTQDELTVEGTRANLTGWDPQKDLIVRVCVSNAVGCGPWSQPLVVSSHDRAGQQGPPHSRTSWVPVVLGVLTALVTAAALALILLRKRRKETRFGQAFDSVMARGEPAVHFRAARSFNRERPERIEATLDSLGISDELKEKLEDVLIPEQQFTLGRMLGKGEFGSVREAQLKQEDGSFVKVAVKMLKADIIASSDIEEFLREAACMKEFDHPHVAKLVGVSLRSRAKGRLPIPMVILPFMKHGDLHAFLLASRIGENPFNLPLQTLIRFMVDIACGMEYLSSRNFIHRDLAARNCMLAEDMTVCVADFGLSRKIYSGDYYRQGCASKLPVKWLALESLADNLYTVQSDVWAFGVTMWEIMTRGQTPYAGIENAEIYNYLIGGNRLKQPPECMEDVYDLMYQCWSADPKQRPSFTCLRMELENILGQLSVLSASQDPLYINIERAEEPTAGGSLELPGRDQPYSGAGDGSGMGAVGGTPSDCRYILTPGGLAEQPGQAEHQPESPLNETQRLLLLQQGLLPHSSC
Sequence of Mitogen-activated protein kinase 3 (Homo sapiens) (P27361 whole entry): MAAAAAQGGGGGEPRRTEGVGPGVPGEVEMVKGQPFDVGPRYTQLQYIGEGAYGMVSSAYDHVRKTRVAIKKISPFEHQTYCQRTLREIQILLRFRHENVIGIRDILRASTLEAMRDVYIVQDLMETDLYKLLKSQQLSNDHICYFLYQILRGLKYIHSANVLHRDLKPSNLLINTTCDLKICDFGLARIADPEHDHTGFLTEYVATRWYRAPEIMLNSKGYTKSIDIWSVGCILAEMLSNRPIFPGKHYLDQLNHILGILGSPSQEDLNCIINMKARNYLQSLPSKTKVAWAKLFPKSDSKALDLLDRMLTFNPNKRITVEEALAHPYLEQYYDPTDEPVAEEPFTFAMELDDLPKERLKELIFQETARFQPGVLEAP
Sequence of Cyclin-dependent kinase-like 2 (Homo sapiens) (Q92772 whole entry): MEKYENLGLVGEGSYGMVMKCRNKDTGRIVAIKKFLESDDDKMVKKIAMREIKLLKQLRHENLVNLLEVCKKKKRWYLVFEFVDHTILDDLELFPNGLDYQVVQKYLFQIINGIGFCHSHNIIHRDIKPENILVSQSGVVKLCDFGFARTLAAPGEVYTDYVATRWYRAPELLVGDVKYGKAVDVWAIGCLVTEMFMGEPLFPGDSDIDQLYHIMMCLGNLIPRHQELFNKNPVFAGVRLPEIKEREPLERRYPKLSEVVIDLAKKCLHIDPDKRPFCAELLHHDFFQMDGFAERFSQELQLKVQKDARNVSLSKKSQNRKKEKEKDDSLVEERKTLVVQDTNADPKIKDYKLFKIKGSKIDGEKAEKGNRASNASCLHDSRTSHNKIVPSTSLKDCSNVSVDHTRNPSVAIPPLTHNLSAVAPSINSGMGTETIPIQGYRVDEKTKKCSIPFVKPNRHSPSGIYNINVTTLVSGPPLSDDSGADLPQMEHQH
Sequence of Mitogen-activated protein kinase 13 (Homo sapiens) (O15264 whole entry): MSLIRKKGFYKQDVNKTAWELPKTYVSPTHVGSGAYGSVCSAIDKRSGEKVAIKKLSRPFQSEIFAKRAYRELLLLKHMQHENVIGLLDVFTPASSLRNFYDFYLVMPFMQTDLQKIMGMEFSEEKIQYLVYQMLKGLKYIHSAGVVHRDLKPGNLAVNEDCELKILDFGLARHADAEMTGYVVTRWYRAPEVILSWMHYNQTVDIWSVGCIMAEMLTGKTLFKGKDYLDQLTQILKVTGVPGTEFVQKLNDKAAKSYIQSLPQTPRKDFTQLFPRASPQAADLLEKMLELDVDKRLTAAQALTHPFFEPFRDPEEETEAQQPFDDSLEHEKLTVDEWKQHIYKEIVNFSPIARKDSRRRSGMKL
Sequence of Serine/threonine-protein kinase OSR1 (Homo sapiens) (O95747 2-527 limits assumed): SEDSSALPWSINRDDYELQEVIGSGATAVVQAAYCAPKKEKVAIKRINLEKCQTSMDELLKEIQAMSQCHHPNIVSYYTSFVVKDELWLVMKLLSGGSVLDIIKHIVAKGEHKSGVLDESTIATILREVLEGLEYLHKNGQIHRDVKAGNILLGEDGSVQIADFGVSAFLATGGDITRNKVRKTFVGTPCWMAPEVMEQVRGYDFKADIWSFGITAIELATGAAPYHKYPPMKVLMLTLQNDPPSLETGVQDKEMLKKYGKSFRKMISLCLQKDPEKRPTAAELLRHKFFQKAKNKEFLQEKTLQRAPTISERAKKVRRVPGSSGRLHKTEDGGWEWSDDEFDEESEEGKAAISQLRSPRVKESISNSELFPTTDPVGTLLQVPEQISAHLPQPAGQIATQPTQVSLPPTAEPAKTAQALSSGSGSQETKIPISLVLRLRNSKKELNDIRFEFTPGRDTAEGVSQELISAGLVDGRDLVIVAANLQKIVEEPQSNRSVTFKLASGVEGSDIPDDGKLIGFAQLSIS
Sequence of Fibroblast growth factor receptor 3 (Homo sapiens), P22607 [G697C] (P22607 whole entry G697C): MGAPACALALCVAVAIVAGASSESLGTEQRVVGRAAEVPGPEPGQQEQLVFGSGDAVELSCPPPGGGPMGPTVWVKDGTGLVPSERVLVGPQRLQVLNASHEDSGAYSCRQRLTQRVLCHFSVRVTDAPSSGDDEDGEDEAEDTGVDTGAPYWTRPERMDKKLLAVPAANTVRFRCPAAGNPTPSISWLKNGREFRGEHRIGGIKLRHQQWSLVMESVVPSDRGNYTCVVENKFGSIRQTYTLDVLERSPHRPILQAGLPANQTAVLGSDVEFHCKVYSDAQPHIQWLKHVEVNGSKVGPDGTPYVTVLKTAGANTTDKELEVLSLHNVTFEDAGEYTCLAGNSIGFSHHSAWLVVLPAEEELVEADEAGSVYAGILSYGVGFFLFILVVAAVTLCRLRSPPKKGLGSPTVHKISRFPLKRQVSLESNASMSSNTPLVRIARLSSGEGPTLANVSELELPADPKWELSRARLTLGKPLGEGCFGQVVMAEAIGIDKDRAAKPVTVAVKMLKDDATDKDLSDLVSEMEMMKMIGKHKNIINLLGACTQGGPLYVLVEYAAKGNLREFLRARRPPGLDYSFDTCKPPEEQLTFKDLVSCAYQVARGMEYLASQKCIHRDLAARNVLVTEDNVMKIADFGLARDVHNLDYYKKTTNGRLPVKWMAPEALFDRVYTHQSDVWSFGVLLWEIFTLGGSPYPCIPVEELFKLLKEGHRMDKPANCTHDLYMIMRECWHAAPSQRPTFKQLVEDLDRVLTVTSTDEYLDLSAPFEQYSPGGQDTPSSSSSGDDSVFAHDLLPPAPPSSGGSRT
Sequence of Serine/threonine-protein kinase 32A (Homo sapiens) (Q8WU08 whole entry): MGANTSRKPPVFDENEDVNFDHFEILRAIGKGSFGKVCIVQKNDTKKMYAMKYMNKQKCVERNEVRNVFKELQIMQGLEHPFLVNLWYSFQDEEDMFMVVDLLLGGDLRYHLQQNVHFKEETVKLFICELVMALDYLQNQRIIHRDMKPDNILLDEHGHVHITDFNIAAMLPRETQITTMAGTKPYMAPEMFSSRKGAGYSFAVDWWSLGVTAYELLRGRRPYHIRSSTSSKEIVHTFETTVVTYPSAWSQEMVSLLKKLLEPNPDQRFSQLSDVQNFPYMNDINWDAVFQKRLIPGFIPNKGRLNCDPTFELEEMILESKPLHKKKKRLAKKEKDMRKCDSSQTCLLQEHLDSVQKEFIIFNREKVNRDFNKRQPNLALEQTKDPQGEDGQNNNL

CN(C)c1ncnc(-c2ccc3nc(Nc4cc(CN5CCN(C(=O)CC(F)(F)F)CC5)ccn4)[nH]c3c2)c1Cl [BAY-440]
inactive: residual activity [1, 46] 100% | residual activity [2, 46] 100% | residual activity [3, 46] 71% | residual activity [4, 46] 95% | residual activity [5, 46] 84% | residual activity [6, 46] 100% | residual activity [7, 46] 57% | residual activity [8, 46] 100% | residual activity [9, 46] 81% | residual activity [11, 46] 69% | residual activity [12, 46] 88% | inhibition [13] 4.83% | residual activity [14, 46] 96% | residual activity [15, 46] 96% | residual activity [16, 46] 57% | residual activity [17, 46] 94% | residual activity [18, 46] 100% | residual activity [19, 46] 85% | residual activity [20, 46] 100% | residual activity [21, 46] 51% | residual activity [22, 46] 94% | residual activity [23, 46] 88% | residual activity [24, 46] 92% | residual activity [25, 46] 100% | residual activity [26, 46] 100% | residual activity [27, 46] 95% | residual activity [28, 46] 100% | residual activity [29, 46] 100% | residual activity [30, 46] 83% | residual activity [31, 46] 100% | residual activity [32, 46] 75% | residual activity [33, 46] 62% | residual activity [34, 46] 80% | residual activity [35, 46] 100% | residual activity [36, 46] 100% | residual activity [37, 46] 100% | residual activity [38, 46] 84% | residual activity [39, 46] 53% | residual activity [42, 46] 77% | residual activity [43, 46] 54% | inhibition [44] 2.06% | inhibition [45] 12.4%
active: residual activity [10, 46] 44% | residual activity [40, 46] 29% | residual activity [41, 46] 44%

C[C@H](c1ccnc(Nc2nc3ccc(-c4cc(N(C)C)ncn4)cc3[nH]2)c1)N1CCN(C(=O)CC(F)(F)F)CC1 [BAY-985]
inactive: residual activity [1, 47] 77% | residual activity [2, 47] 100% | residual activity [3, 47] 67% | residual activity [4, 47] 100% | residual activity [5, 47] 100% | residual activity [6, 47] 100% | residual activity [7, 47] 94% | residual activity [8, 47] 100% | residual activity [9, 47] 60% | residual activity [10, 47] 100% | residual activity [11, 47] 100% | residual activity [12, 47] 100% | inhibition [13] 24.7% | residual activity [14, 47] 76% | residual activity [15, 47] 100% | residual activity [16, 47] 100% | residual activity [17, 47] 96% | residual activity [18, 47] 96% | residual activity [19, 47] 100% | residual activity [20, 47] 100% | residual activity [21, 47] 89% | residual activity [22, 47] 100% | residual activity [23, 47] 97% | residual activity [24, 47] 96% | residual activity [25, 47] 100% | residual activity [26, 47] 80% | residual activity [27, 47] 97% | residual activity [28, 47] 93% | residual activity [29, 47] 100% | residual activity [30, 47] 100% | residual activity [31, 47] 100% | residual activity [32, 47] 95% | residual activity [33, 47] 86% | residual activity [34, 47] 100% | residual activity [35, 47] 89% | residual activity [36, 47] 100% | residual activity [37, 47] 84% | residual activity [38, 47] 100% | residual activity [40, 47] 100% | residual activity [41, 47] 100% | residual activity [42, 47] 100% | residual activity [43, 47] 86% | inhibition [44] 29% | inhibition [45] -4.38%
active: residual activity [39, 47] 43%
